From patent publication US6770669B1, “Amidine derivatives, preparation and use thereof as medicines” (Societe de Conseils de Recherches et d'Applications …, priority 1999, dated 2004)

Key:
[1] = target: T1, neuronal constitutive NO synthase (Rattus norvegicus, UniProt P29476); assay: Effects on neuronal constitutive NO synthase of a rat's cerebellum ([3H]L-arginine to [3H]L-citrulline conversion); type: biochemical; settings: rat cerebellum homogenate; conversion of [3H]L-arginine to [3H]L-citrulline
T1 construct: The reaction is initiated by adding 50 μl of homogenate; from tissue; host or cells: cerebellum of Sprague-Dawley rats (homogenate centrifuged at 21000 g)
Protocol: Study of the Effects on Neuronal Constitutive NO Synthase of a Rat's Cerebellum
The inhibitory activity of the products of the invention is determined by measuring their effects on the conversion by NO synthase of [^3H]L-arginine to [^3H]L-citrulline according to the modified method of Bredt and Snyder (Proc. Natl. Acad. Sci. USA. (1990) 87: 682-685). The cerebellums of Sprague-Dawley rats (300 g—Charles River) are rapidly removed, dissected at 4° C. and homogenized in a volume of extraction buffer (HEPES 50 mM, EDTA 1 mM, pH 7.4, pepstatin A […], leupeptin […]). The homogenates are then centrifuged at 21000 g for 15 min at 4° C. Dosage is carried out in glass test tubes in which 100 μl of incubation buffer containing 100 mM of HEPES (pH 7.4), 2 mM of EDTA, 2.5 mM of CaCl2, 2 mM of dithiotreitol, 2 mM of reduced NADPH and 10 μg/ml of calmodulin are distributed. 25 μl of a solution containing 100 nM of [^3H]L-arginine (Specific activity: 56.4 Ci/mmole, Amersham) and 40 μM of non-radioactive L-arginine is added. The reaction is initiated by adding 50 μl of homogenate, the final volume being 200 μl (the missing 25 μl are either water or the tested product). […] After passing the samples through a 1 ml column of DOWEX resin, the radioactivity is quantified by a liquid scintillation spectrometer.

MAO-B = target: T2, MAO-B (Rattus norvegicus, UniProt P19643); assay: Effects on the bond of a specific ligand of MAO-B, [3H]Ro 19-6327 (rat cortex mitochondrial preparation); type: binding; settings: [3H]Ro 19-6327 33 nM, 1 hour at 37° C.
T2 construct: 100 μl of the mitochondrial preparation (2 mg protein/ml) is incubated for 1 hour at 37° C; from tissue; host or cells: rat cortex, mitochondrial fraction
T2 sequence (P19643 1-520): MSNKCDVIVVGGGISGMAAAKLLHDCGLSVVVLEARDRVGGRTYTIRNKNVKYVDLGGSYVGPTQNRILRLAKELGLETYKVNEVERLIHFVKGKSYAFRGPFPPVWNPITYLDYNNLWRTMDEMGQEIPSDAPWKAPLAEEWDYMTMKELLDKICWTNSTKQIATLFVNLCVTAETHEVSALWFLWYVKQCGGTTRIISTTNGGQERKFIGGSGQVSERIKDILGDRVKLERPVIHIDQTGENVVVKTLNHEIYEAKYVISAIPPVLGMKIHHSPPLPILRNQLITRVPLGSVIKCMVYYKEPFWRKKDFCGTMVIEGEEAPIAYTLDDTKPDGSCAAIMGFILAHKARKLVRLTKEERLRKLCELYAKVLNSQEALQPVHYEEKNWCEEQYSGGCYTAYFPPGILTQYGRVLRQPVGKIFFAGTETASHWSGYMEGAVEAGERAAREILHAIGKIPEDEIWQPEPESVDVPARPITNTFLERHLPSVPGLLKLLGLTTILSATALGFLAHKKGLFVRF
Protocol: Study of the Effects on the Bond of a Specific Ligand of MAO-B, [^3H]Ro 19-6327
The inhibitory activity of the products of the invention is determined by measuring their effects on the bond of a specific ligand of MAO-B, [^3H]Ro 19-6327.
A) Mitochondrial Preparation of the Cortex of Rats
The mitochondrial preparation of the cortex of rats is carried out according to the method described in Cesura A M, Galva M D, Imhof R and Da Prada M, J. Neurochem. 48 (1987), 170-176. The rats are decapitated and their cortex is removed, homogenized in 9 volumes of a 0.32 M sucrose buffer, buffered to pH 7.4 with 5 mM of HEPES, then centrifuged at 800 g for 20 minutes. The supernatants are recovered and the pellets are washed twice with the 0.32 M sucrose buffer as previously. The collected supernatants are centrifuged at 10000 g for 20 minutes. […] The proteinic content of the preparation is determined by the Lowry method.
100 μl of the mitochondrial preparation (2 mg protein/ml) is incubated for 1 hour at 37° C. in an Eppendorf tube, in the presence of 100 μl of [^3H]Ro 19-6327 (33 nM, final concentration) and 100 μl of Tris buffer containing or not containing the inhibitors. […] The radioactivity is determined by counting the samples using liquid scintillation.

IC50 [1]: < 3.5 µM
IC50 (MAO-B): < 25 µM
melting point: 109 to 110 °C
Structure (SMILES): C#CCN(C)Cc1ccc(N=C(N)c2cccs2)cc1 [Example 1, N′-(4-{[methyl(2-propynyl)amino]methyl}phenyl)-2-thiophenecarboximidamide]
